Assay results reported in ChEMBL document CHEMBL1158205, “Antineoplastic agents. 340. Isolation and structural elucidation of bryostatins 16-18” (J Nat Prod, 1996).
Converted amounts (≈) assume the structure as drawn.

Key:
P388 = experiment: Cytotoxicity against mouse P388 cells; type: functional; settings: read-out: ED50 (the source's name)
OVCAR-3 = experiment: Growth inhibition of human OVCAR-3 cells by NCI-method; type: functional
SF-295 = experiment: Growth inhibition of human SF295 cells by NCI-method; type: functional
A498 = experiment: Growth inhibition of human A498 cells by NCI-method; type: functional
NCI-H460 = experiment: Growth inhibition of human NCI-H460 cells by NCI-method; type: functional
KM-20L2 = experiment: Growth inhibition of human KM20L2 cells by NCI-method; type: functional
SK-MEL-5 = experiment: Growth inhibition of human SK-MEL-5 cells by NCI-method; type: functional
[1] = molecular target: Protein kinase C alpha type (Homo sapiens, UniProt P17252); experiment: Displacement of [3H]PDBu form PKCalpha

Structure (SMILES) | EC50 (P388) [µg/mL] | GI50 (OVCAR-3) [µg/mL] | GI50 (SF-295) [µg/mL] | GI50 (A498) [µg/mL] | GI50 (NCI-H460) [µg/mL] | GI50 (KM-20L2) [µg/mL] | GI50 (SK-MEL-5) [µg/mL] | Ki [1] [nM]
COC(=O)/C=C1\C=C2O[C@@H](C1)C[C@H]([C@@H](C)O)OC(=O)C[C@H](O)C[C@@H]1C[C@H](OC(=O)C(C)(C)C)C(C)(C)[C@](O)(C[C@@H]3C/C(=C/C(=O)OC)C[C@H](/C=C/C2(C)C)O3)O1 [BRYOSTATIN 17] | 0.019 (≈ 0.024 µM) | 0.16 (≈ 0.202 µM) | 0.16 (≈ 0.202 µM) | 0.16 (≈ 0.202 µM) | 0.16 (≈ 0.202 µM) | 0.16 (≈ 0.202 µM) | 0.16 (≈ 0.202 µM) | 188
COC(=O)/C=C1/C[C@H]2C[C@]3(O)O[C@H](C[C@@H](O)CC(=O)O[C@@H]([C@@H](C)O)C[C@@H]4C/C(=C\C(=O)OC)C=C(O4)C(C)(C)/C=C/[C@@H](C1)O2)C[C@H](OC(=O)C(C)(C)C)C3(C)C [BRYOSTATIN 16] | 0.0093 (≈ 0.0118 µM) | 1.9 (≈ 2.4 µM) | 1.4 (≈ 1.77 µM) | 1.9 (≈ 2.4 µM) | 0.019 (≈ 0.024 µM) | 2.2 (≈ 2.78 µM) | 1.2 (≈ 1.52 µM) | 118
COC(=O)/C=C1/C[C@H]2C[C@]3(O)O[C@H](C[C@@H](O)CC(=O)O[C@@H]([C@@H](C)O)C[C@@H]4C/C(=C/C(=O)OC)C[C@@](O)(O4)C(C)(C)/C=C/[C@@H](C1)O2)C[C@H](OC(=O)C(C)(C)C)C3(C)C [BRYOSTATIN 18] | 0.0033 (≈ 0.00408 µM) | 0.42 (≈ 0.519 µM) | 0.42 (≈ 0.519 µM) | 0.42 (≈ 0.519 µM) | 0.42 (≈ 0.519 µM) | 0.42 (≈ 0.519 µM) | 0.42 (≈ 0.519 µM) | 4.82
COC(=O)/C=C1/C[C@H]2C[C@]3(O)O[C@H](C[C@@H](O)CC(=O)O[C@@H]([C@@H](C)O)C[C@@H]4C/C(=C\C(=O)OC)C[C@@](O)(O4)C(C)(C)/C=C/[C@@H](C1)O2)C[C@H](OC(=O)C(C)(C)C)C3(C)C [BRYOSTATIN 10] | – | – | – | – | – | – | – | 1.56
